Data published in patent US5556858A, “Cis-2-[(4-heteroaryl-1-piperazinyl)alkyl] hexahydro-1H-isoindole-1,3 (2H)-diones and related compounds and their therapeutic utility” (Hoechst-Roussel Pharmaceuticals, Inc., priority 1995, dated 1996).
Like-named read-outs stand apart in the source and are kept apart here.

How the values were obtained:
[1] = test system: phenylquinone induced writhing; assay: phenyl p-quinone writhing assay (analgesia); format: in vivo, mice; details: Mus musculus, sc, dose effecting approximately 50% inhibition of writhing
Description: Some of the compounds of the present invention are also useful as analgetics due to their ability to alleviate pain in mammals. […] Exptl. Biol. Med., 95:729 (1957). Thus, for instance, the subcutaneous dose effecting an approximately 50% inhibition of writhing (ED50) in mice produced in this assay is as shown in Table 2.

apomorphine climbing = assay: climbing mice assay (antipsychotic activity); format: in vivo, mice (CK-1 male); details: Mus musculus; ip; apomorphine 1.5 mg/kg subcutaneously; climbing score vs control
Procedure: Subject […] male mice (23-27 grams) are group-housed under standard laboratory conditions. The mice are individually placed in wire mesh stick cages (4"×10") and are allowed one hour for adaption and exploration of the new environment.
For evaluation of climbing, 3 readings are taken at 10, 20, and 30 minutes-after apomorphine administration according to the following scale: […]
Mice consistently climbing before the injection of apomorphine are discarded.
With full-developed apomorphine climbing, the animals are hanging on to the cage walls, rather motionless, over long periods of time. By contrast, climbs due to mere motor stimulation usually only last a few seconds.
The climbing scores are individually totaled (maximal score: 6 per mouse over 3 readings) and the total score of the control group (vehicle intraperitoneally-apomorphine subcutaneously) is set to 100%.

[2] = read-out: INHIBITION OF PHE[…] WRITHING ED50

| SMILES | ED50 [1, 2] [mg/kg] | ED50 (apomorphine climbing) [mg/kg] | ED50 [1] [mg/kg] |
| --- | --- | --- | --- |
| CC(C)=CCN1CCC2(C)c3cc(O)ccc3CC1C2C (centres unmarked) [Pentazocine, reference compound] | 1.3 |  |  |
| COc1cc(C(C)=O)ccc1OCCCN1CCC(c2noc3cc(F)ccc23)CC1 [1-[4-[3-[4-(6-fluoro-1,2-benzisoxazol-3-yl)-1-piperidinyl]propoxy]-3-methoxyphenyl]ethanone] |  | 0.095 | 0.03 |
| CCC(=O)O[C@](Cc1ccccc1)(c1ccccc1)[C@H](C)CN(C)C [Propoxyphene, reference compound] | 3.9 |  |  |
| COc1cc(C(C)=O)ccc1OCCCN1CCN(c2n[nH]c3ccccc23)CC1 [1-[4-[3-[4-(1H-indazol-3-yl)-1-piperazinyl]propoxy]-3-methoxyphenyl]ethanone] |  | 0.98 | 0.06 |
| COc1cc(C(C)=O)ccc1OCCCN1CCC(c2noc3ccccc23)CC1 [1-[4-[3-[4-(1,2-benzisoxazol-3-yl)-1-piperidinyl]propoxy]-3-methoxyphenyl]ethanone] |  | 0.67 | 0.17 |
